Reference: patent US20160074373A1, “METHODS AND COMPOSITIONS FOR INHIBITING HUMAN COPPER TRAFFICKING PROTEINS ATOX1 AND CCS” (SHANGHAI INSTITUTE OF MATERIA MEDICA, CHINESE ACADEMY OF …, priority 2013, published 2016)

Experiments:
[1] = system: tumor growth; conditions: TM-induced copper deficiency; cited from earlier work
[2] = system: human PIG1 cell and human dermal fibroblast cell; conditions: 72 hours, highest concentration tested 10 μM
[3] = system: Lung cancer H1299 cell, Head and neck cancer 212LN cell, Breast cancer MB231 cell; assay: Cancer cell viability / proliferation; conditions: H1299, 212LN, MB231; increasing doses
[4] = system: Atox1-WD4 interaction (eCALWY3 probe); assay: eCALWY3 FRET assay of Atox1-WD4 interaction; type: biochemical, human; conditions: for Fluorescence Intensity Ratio (Citrine/Cerulean): 100 μM compound added; for Recover %: 100 μM compound, recovery of FRET ratio towards eCALWY3 only
Method: FRET for the eCALWY3 was performed in 150 mM HEPES, 100 mM NaCl, 1 mM DTT and 10% glycerol (pH 7.1). Zn^2+ titration was done by mixing 0.9 mM of Zn^2+ from a slightly acidic stock solution of ZnCl2 with buffering systems consisting of 1 mM DHPTA. The effects of varying concentrations of the small molecules were evaluated. Fluorescence spectra and emission anisotropy were recorded on a Varian Cary Eclipse spectrometer.

[5] = system: K562 cancer cells; assay: 8-OHdG levels by triple quadrupole mass spectrometry; type: cell-based; conditions: NAC 3 mM
From the text: FIG. 20B illustrates 8-OHdG levels in K562 cancer cells determined by triple quadrupole mass spectrometry analysis. […] .

[6] = system: AMPK phosphorylation and ACC1 phosphorylation; assay: Western blot of AMPK and ACC1 phosphorylation; type: cell-based; conditions: co-treatment with compound 50
[7] = system: H1299 cancer cells; assay: 8-OHdG levels by triple quadrupole mass spectrometry; type: cell-based; conditions: NAC 3 mM
From the text: FIG. 20A illustrates 8-OHdG levels in H1299 cancer cells determined by triple quadrupole mass spectrometry analysis. […] .

[8] = system: cell proliferation; assay: Rescue of cell proliferation inhibition induced by compound 50; type: cell-based; conditions: co-treatment with compound 50
[9] = system: H1299 cells; assay: ROS production (DCFH-DA); type: cell-based; conditions: co-treatment with compound 50
Method: (§1) Cells were treated with DMSO and DC_AC50 for 12 h and ROS generation was detected with DCFH-DA. Cells were incubated with 10 μM of DCFH-DA for 30 min at 37° C., washed twice with PBS, and immediately analyzed by a FACScan flow cytometer. The antioxidant NAC was treated with 3 mM concentration.

[10] = system: K562 cells; assay: ROS production (DCFH-DA); type: cell-based; conditions: co-treatment with compound 50
Method: as §1

[11] = system: H1299 cells; assay: 14C-lipid synthesis from 14C-glucose; type: cell-based; conditions: co-treatment with compound 50

Row | Compound | viability of normal cells [2] | cell death in cancer cells [3] | Fluorescence Intensity Ratio (Citrine/Cerulean) [4] | Recover % [4] [%] | further results
1 | [SH-].[SH-].[S]=[Mo]=[S] [TM, tetrathiomolybdate] | – | – | – | – | tumor growth [1]: significantly inhibited tumor growth
2 | CCN1CCc2nc3sc(C(=O)Nc4ccccc4OC(F)(F)F)c(N)c3cc2C1 [Compound 2, 3-amino-6-ethyl-N-(2-(trifluoromethoxy)phenyl)-5,6,7,8-tetrahydro-thieno[2,3-b][1,6]naphthyridine-2-carboxamide] | not harmful | induce cell death | eCALWY3 only: 3.54 100 μM compound added: 3.05 | 86 | –
3 | CC(=O)N[C@@H](CS)C(=O)O [NAC, N-acetyl-L-cysteine, reference compound] | – | – | – | – | rescue of 8-OHdG levels increased by compound 50 [5]: rescued; rescue of AMPK and ACC1 phosphorylation increased by compound 50 [6]: could not be rescued; rescue of 8-OHdG levels increased by compound 50 [7]: rescued; rescue of cell proliferation inhibited by compound 50 [8]: partially rescued; rescue of cellular ROS levels increased by compound 50 [9]: almost completely rescued; rescue of cellular ROS levels increased by compound 50 [10]: almost completely rescued
4 | Cc1cc(NC(=O)c2sc3nc(-c4ccccc4)cc(C(F)(F)F)c3c2N)no1 [Compound 71, 3-amino-N-(5-methylisoxazol-3-yl)-6-phenyl-4-(trifluoromethyl)thieno[2,3-b]pyridine-2-carboxamide] | toxic to normal cells | – | eCALWY3 only: 2.25 100 μM compound added: 1.86 | 83 | –
5 | COc1ccc2cc3c(N)c(C(=O)Nc4ccc(C(C)=O)cc4)sc3nc2c1 [Compound 61, N-(4-acetylphenyl)-3-amino-7-methoxythieno[2,3-b]quinoline-2-carboxamide] | not harmful | induce cell death | eCALWY3 only: 3.68 100 μM compound added: 2.72 | 74 | –
6 | COc1cccc(-c2ccc3c(N)c(C(=O)Nc4cc(OC)ccc4Cl)sc3n2)c1 [Compound 49, 3-amino-N-(2-chloro-5-methoxyphenyl)-6-(3-methoxyphenyl)thieno[2,3-b]pyridine-2-carboxamide] | not harmful | induce cell death | eCALWY3 only: 2.24 100 μM compound added: 1.89 | 84 | –
7 | Nc1c(C(=O)NCC(c2ccccc2)c2ccccc2)sc2nc(-c3ccncc3)cc(C(F)(F)F)c12 [Compound 30] | not harmful | induce cell death | eCALWY3 only: 2.27 100 μM compound added: 1.53 | 67 | –
8 | c1cc(-c2cnn3cc(-c4ccc(OCCN5CCCCC5)cc4)cnc23)ccn1 [compound C, reference compound] | – | – | – | – | rescue of AMPK and ACC1 phosphorylation increased by compound 50 [6]: almost completely reversed; rescue of cell proliferation inhibited by compound 50 [8]: partially rescued; rescue of lipid synthesis decreased by compound 50 [11]: recovered lipid synthesis
